According to patent publication US20250115597A1, “TYK2 INHIBITORS AND COMPOSITIONS AND METHODS THEREOF” (LYNK PHARMACEUTICALS CO. LTD., priority 2021, published 2025):

Test system: pSTAT1
Assay: Phosphorylation inhibition of STAT in human PBMC, IFN-alpha stimulated (flow cytometry)
Assay type: cell-based
Conditions: 20 min; human PBMC, IFN-alpha 20 mins, CD3 cells; read-out: IC50 on pSTAT1 inhibition in hPBMC
Experimental: Phosphorylation Inhibition of STAT in Human PBMC and Human Whole Blood Testing:
The inhibitory potential of test articles in human PBMC and human whole blood assay was evaluated by the method of flow cytometry.
IFN-alpha will activate JAK1 and TYK2 kinase in T cells by binding to IFN receptors, and then lead to phosphorylation of STAT1 and STAT2. The phosphorylated STAT1 enter nuclear and promote transcription and expression of IFN-gamma. To evaluate the efficacy of TYK2i in T cells, freshly prepared human PBMC or freshly collected human whole blood will be stimulated with certain unit of human IFN-alpha (Universal Type I IFN(1MU), R&D, 11200-2) for 20 mins in incubator. After stimulation, fix cells with Phosflow™ Fix Buffer I (BD, 557870), and then collect fixed cells by centrifugation (500 g, 8 min). Wash cells once with pre-cooled PBS, and then permeabilize cells with cold Perm Buffer III buffer (BD, 558050) for 45 mins on ice. Collect cells by centrifugation (600 g, 8 min) and washed twice with cold PBS. Stain cells with anti-human CD3 (FITC Mouse Anti-Human CD3, BD, 555332) and anti-pSTAT1_Y701(Alexa Fluor 647 Mouse Anti-Stat1 (pY701), BD, 612597) antibodies. Detect pSTAT1 by flow cytometry (CytoFlex S) and analyze data with FlowJo and GraphPad Prism 8 software. IC50 values of test articles were determined using 4-parameter logistic equation.

Row | IC50 [nM] | Structure (SMILES)
1 | 14.9 | [2H]C([2H])([2H])NC(=O)c1cnc(NC(=O)C2CC2)cc1Nc1ccc2cnn(CC)c2c1OC [Example 44, 6-(Cyclopropanecarboxamido)-4-((1-ethyl-7-methoxy-1H-indazol-6-yl)amino)-N-(methyl-d3)nicotinamide]
2 | 23.3 | [2H]C([2H])([2H])NC(=O)c1cnc(Nc2ccc(F)cn2)cc1Nc1nn(C)c2ccn(CC)c(=O)c12 [Example 139, 4-((5-Ethyl-1-methyl-4-oxo-4,5-dihydro-1H-pyrazolo[4,3-c]pyridin-3-yl)amino)-6-((5-fluoropyridin-2-yl)amino)-N-(methyl-d3)nicotinamide]
